System: Puccinia recondita
Test: Curative activity against brown rust of wheat caused by Puccinia recondita
Format: in vivo
Settings: 250 ppm active compound, wheat cultivar Kanzler, 7 days after treatment, untreated plants 80% infected
Experimental: The active compounds were prepared as a stock solution by mixing 25 mg of active compound with a mixture of acetone and/or DMSO and the emulsifier Uniperol® EL (wetting agent having an emulsifying and dispersing action based on ethoxylated alkylphenols) in a volume ratio of solvent/emulsifier of 99:1 to give a total volume of 10 ml, and the mixture was then diluted to 100 ml with water. This stock solution was diluted with the solvent/emulsifier/water mixture described to give the concentration of active compounds stated below.
Leaves of potted wheat seedlings of the cultivar “Kanzler” were inoculated with a spore suspension of brown rust (Puccinia recondita). The pots were then placed into a chamber with high atmospheric humidity (90 to 95%) and at 20-22° C. for 24 hours. During this time, the spores germinated and the germ tubes penetrated into the leaf tissue. The next day, the infected plants were sprayed to runoff point with an aqueous suspension having the concentration of active compounds stated below. The suspension or emulsion was prepared as described above. After the spray coating had dried on, the test plants were cultivated in a greenhouse at temperatures between 20 and 22° C. and at 65 to 70% relative atmospheric humidity for 7 days. The extent of the rust fungus development on the leaves was then determined.

Row | SMILES | infection of treated plants (rust fungus development on leaves)
1 | COC(=O)C(Nc1c(-c2c(F)cc(F)cc2F)c(Cl)nc2ncnn12)C(C)(C)C (racemic) [Example 61] | no infection
2 | COC(=O)C(C(C)C)N(C)c1c(-c2c(F)cc(F)cc2F)c(Cl)nc2ncnn12 (centres unmarked) [Example 60] | no infection
